The values below are quoted from earlier work in patent US20080003219A1, “DELIVERY OF AN OCULAR AGENT” (MINU, L.L.C., priority 2005, published 2008).

In series [1] the test system is chronic myeloid leukemia (CML). The conditions noted are these: CML patients who initially respond.
Series [2] deals with neovascular age-related macular degeneration. Particulars: 1 mg single intravitreal injection.
Series [3] concerns choroidal neovascularization. Particulars: intravitreal injection in combination with verteporfin PDT, compared with PDT only.

Consider `Cc1ccc(NC(=O)c2ccc(CN3CCN(C)CC3)cc2)cc1Nc1nccc(-c2cccnc2)n1` [imatinib], for which the “initially responding CML patients who subsequently develop drug resistance” value in series [1] is reported as “about 10%”.

bevacizumab: the observed inflammation result in series [2] is given as “no observed inflammation”. The subretinal fluid entry in series [2] (after one week) is recorded as “resolution of subretinal fluid after one week”. The macular appearance entry in series [2] (duration of improvement) was “improved macular appearance maintained for at least four weeks”.

B1: ranibizumab (antibody, chains of the INN, looked up, V domains shown)
VH: EVQLVESGGGLVQPGGSLRLSCAASGYDFTHYGMNWVRQAPGKGLEWVGWINTYTGEPTYAADFKRRFTFSLDTSKSTAYLQMNSLRAEDTAVYYCAKYPYYYGTSHWYFDVWGQGTLVTVSS
VL: DIQLTQSPSSLSASVGDRVTITCSASQDISNYLNWYQQKPGKAPKVLIYFTSSLHSGVPSRFSGSGSGTDFTLTISSLQPEDFATYYCQQYSTVPWTFGQGTKVEIK
modifications: Fab
As for B1, the “reduction in angiographic leakage” value in series [3] is reported as “greater reduction in angiographic leakage than PDT only”.
